Test results published in patent publication US20120077683A1, “KIT AND METHOD FOR PREDICTING CYTARABINE SENSITIVY OF PATIENT HAVING ACUTE MYELOID LEUKEMIA” (SAMSUNG ELECTRONICS CO., LTD., priority 2010, published 2012).

How the values were obtained:
[1] = test system: patients having acute myeloid leukemia; details: stated as known; cited from earlier work
[2] = test system: patients having acute myeloid leukemia; test: Cytarabine therapy of patients having acute myeloid leukemia, complete remission determined from number of leukocytes; format: in vivo, human; details: of 139 patients with acute myeloid leukemia, cytarabine administered according to NCCN guidelines
Experimental: Cytarabine sensitivity of 139 patients who had acute myeloid leukemia and were treated in Samsung Medical Center was identified. That is, cytarabine was administered to the patients according to NCCN guidelines, and the number of leukocytes was subsequently measured in each patient to determine complete remission to determine whether the cytarabine therapy was effective for the patient. The patients were then classified into one group of 121 patients having cytarabine sensitivity (responders) and the other group of 18 patients not having cytarabine sensitivity (nonresponders). In addition, blood of the patients was obtained to extract DNA by using QIAamp DNA Mini and blood Mini kits in order to determine SNPs associated with cytarabine sensitivity of the patients.

SMILES: Nc1ccn([C@@H]2O[C@H](CO)[C@@H](O)[C@@H]2O)c(=O)n1 [cytarabine, cytosine arabinoside]
- patients having acute myeloid leukemia on whom administration of cytarabine is not effective [1]: about 20%
- patients having cytarabine sensitivity (responders) [2]: 121 patients
- patients not having cytarabine sensitivity (nonresponders) [2]: 18 patients
